# Assay results published in patent US20210290629A1 (priority 2016, published 2021).
# Like-named read-outs stand apart in the source and are kept apart here.
# Legend:
# [1] = system: GFP-expressing Mycobacterium tuberculosis H37Rv; type: cell-based
# [2] = system: human monocyte-derived macrophages (hMDM); experiment: Cell viability analysis by impedance measurements (xCELLigence); type: cell-based; conditions: FIG. 5 and 6, range of tested concentrations (30, 100 and 300 nM), 120 h
# Method: 3) Cell Viability Analysis by Impedance Measurements
# Real-time viability assays (5×10^4 human monocyte derived macrophages/well) were performed with the xCELLigence System (Acea Biosciences Inc.) (Otero-Gonzalez L et al., Environ Sci Technol. 2012; 46(18):10271-8). Impedance measurement was carried out using plates with incorporated sensor array (E-Plate) and the Real-Time Cell Analyzer (RTCA) SP instrument for 120 h. After equilibration of the cells in RPMI 1640 with 10% FCS and 4 mM L-glutamine for 3 h, cells incubated in the absence (medium) or the presence of the ACC2 inhibitor (30, 100 and 300 nM) and staurosporine (1 μg/ml). Data obtained was analyzed using the RTCA Software 2.0 (Acea Biosciences Inc.) see FIGS. 5 and 6.
# [3] = system: Mycobacterium tuberculosis (Mtb H37Rv) in human monocyte-derived macrophages (hMDM); type: cell-based; conditions: seven days; for intracellular growth of Mycobacterium tuberculosis in primary human macrophages (CFU): 300 nM
# [4] = biological target: M. tuberculosis AccD5 (Mycobacterium tuberculosis, UniProt P9WQH7); conditions: literature, Lin T-W. et al., PNAS 2006; cited from earlier work
# Chain of M. tuberculosis AccD5 (P9WQH7 whole entry): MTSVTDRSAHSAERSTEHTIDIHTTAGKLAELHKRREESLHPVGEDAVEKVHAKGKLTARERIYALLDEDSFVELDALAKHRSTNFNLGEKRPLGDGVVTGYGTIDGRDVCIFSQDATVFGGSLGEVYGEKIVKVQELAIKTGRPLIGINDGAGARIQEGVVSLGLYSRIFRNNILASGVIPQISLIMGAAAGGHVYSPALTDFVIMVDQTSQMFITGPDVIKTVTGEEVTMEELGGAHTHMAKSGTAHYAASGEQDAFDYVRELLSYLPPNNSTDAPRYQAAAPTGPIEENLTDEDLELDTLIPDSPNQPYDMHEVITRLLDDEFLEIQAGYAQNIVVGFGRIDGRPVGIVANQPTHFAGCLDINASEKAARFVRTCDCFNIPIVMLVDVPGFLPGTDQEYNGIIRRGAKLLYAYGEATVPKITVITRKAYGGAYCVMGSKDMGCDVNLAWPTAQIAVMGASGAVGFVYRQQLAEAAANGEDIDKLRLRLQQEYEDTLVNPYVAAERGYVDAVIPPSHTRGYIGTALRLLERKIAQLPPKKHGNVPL
# Chain of M. tuberculosis AccD5 (P9WPQ3 whole entry, further chain): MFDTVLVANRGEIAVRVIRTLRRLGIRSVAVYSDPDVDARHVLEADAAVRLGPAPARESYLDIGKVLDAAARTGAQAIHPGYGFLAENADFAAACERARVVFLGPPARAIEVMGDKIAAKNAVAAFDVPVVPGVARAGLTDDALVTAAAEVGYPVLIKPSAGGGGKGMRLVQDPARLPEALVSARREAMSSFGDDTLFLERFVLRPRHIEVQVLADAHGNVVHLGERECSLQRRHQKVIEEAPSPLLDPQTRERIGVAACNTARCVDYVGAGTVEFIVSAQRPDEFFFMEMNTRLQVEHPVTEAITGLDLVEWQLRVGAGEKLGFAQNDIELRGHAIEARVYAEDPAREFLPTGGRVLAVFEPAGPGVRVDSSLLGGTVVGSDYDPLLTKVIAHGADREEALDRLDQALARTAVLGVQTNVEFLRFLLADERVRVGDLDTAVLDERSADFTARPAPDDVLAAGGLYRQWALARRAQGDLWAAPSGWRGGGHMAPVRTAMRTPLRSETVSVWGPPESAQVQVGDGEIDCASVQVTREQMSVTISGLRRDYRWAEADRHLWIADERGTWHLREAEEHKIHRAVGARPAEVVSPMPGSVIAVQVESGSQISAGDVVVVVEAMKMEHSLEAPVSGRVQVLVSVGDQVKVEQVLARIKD
# [5] = system: M, tuberculosis; conditions: literature, Singhal A. et al., Science Translational Medicine 2014; cited from earlier work
# [6] = FIG. 8 and 9, indicated concentrations, day 7
structure (smiles),measurement,setting,value
O=C(c1c2ccccc2cc2ccccc12)N1CCC(N2CCC[C@@H](C(=O)N3CCOCC3)C2)CC1 [CP640.186],growth of Mycobacterium tuberculosis (Mtb) in liquid culture (fluorescence signal intensity at 528 nm),[1]; [6],does not affect growth
same,"viability of primary human macrophages (cell index, impedance)",[2],does not affect the viability
same,intracellular growth of Mycobacterium tuberculosis in primary human macrophages (CFU),"[3]; FIG. 4, 500 nM, one out of two experiments",dose-dependently reduces intracellular growth
CC(Oc1ccc(Oc2ccc(Cl)cc2Cl)cc1)C(=O)O (stereo not drawn) [Diclofop],inhibition of M. tuberculosis AccD5,[4],cannot be inhibited
CC(Oc1ccc(Oc2ncc(C(F)(F)F)cc2Cl)cc1)C(=O)O (stereo not drawn) [Haloxyfop],inhibition of M. tuberculosis AccD5,[4],cannot be inhibited
COc1cc(C(=O)N2CCC3(CC2)CC(=O)c2cc(-c4cncc(C(=O)O)c4)ccc2O3)cc2c1c(C)cn2C1CC1 [MK-4074],growth of Mycobacterium tuberculosis (Mtb) in liquid culture (fluorescence signal intensity at 528 nm),[1]; [6],do not affect growth
CN(C)C(=N)N=C(N)N [Metformin],intracellular growth of M. tuberculosis,[5],reducing the intracellular growth
COc1ccccc1[C@H](Cn1c(=O)n(C(C)(C)C(N)=O)c(=O)c2c(C)c(-c3ncco3)sc21)OC1CCOCC1 [ND-646],growth of Mycobacterium tuberculosis (Mtb) in liquid culture (fluorescence signal intensity at 528 nm),[1]; [6],do not affect growth
"CC(=O)NC(C)c1cnc(-c2cnc(Oc3ccc(OC(C)C)cc3)s2)s1 (stereo not drawn) [ab142090, N-(1-(2′-(4-isopropoxyphenoxy)-2,5′-bithiazol5-yl)ethyl)Acetamide]",growth of Mycobacterium tuberculosis (Mtb) in liquid culture (fluorescence signal intensity at 528 nm),"[1]; FIG. 1, indicated concentrations and time points, two independent experiments",does not affect the growth
same,"viability of primary human macrophages (cell index, impedance)",[2],does not affect the viability
same,intracellular growth of Mycobacterium tuberculosis in primary human macrophages (CFU),"[3]; FIG. 2, 100 nM, three donors",dose-dependently reduces intracellular growth
same,"intracellular growth of Mycobacterium tuberculosis in primary human macrophages (CFU), combination with antibiotics","[3]; FIG. 3, 100 nM or 300 nM in combination with rifampicin or isoniazid in suboptimal concentrations, three donors",reduces intracellular growth
